From ChEMBL document CHEMBL1201862, “PubChem BioAssay data set” (2004)
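Each compound was tested at five concentrations against cells in 96-well plates for 48 hours. GI50: concentration for 50% inhibition of growth.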 Calls of active or inactive are those of the source. Rule as the data show it: active = GI50 up to about 1.1 µM and inactive = higher.

Assays:
Assay in all cases: DTP human tumour cell line panel, 48 h
BT-549 = test system: BT-549
DU-145 = test system: DU-145
HCT-116 = test system: HCT-116
HOP-62 = test system: HOP-62
HOP-92 = test system: HOP-92
Hs-578T = test system: Hs-578T
K562 = test system: K562
KM12 = test system: KM12
M14 = test system: M14
NCI-H23 = test system: NCI-H23
RXF 393 = test system: RXF 393
SF-295 = test system: SF-295
SK-MEL-5 = test system: SK-MEL-5
SN12C = test system: SN12C
T47D = test system: T47D
U-251 = test system: U-251
UACC-257 = test system: UACC-257
A498 = test system: A498
LOX IMVI = test system: LOX IMVI
NCI-H522 = test system: NCI-H522

SMILES | GI50 (BT-549) | GI50 (DU-145) | GI50 (HCT-116) | GI50 (HOP-62) | GI50 (HOP-92) | GI50 (Hs-578T) | GI50 (K562) | GI50 (KM12) | GI50 (M14) | GI50 (NCI-H23) | GI50 (RXF 393) | GI50 (SF-295) | GI50 (SK-MEL-5) | GI50 (SN12C) | GI50 (T47D) | GI50 (U-251) | GI50 (UACC-257) | GI50 (A498) | GI50 (LOX IMVI) | GI50 (NCI-H522)
Cc1c2c3ccccc3nc-2n(C)c2ccccc12 | 3.71 µM (inactive) | 3.67 µM (inactive) | 0.495 µM (active) | 3.78 µM (inactive) | 2.61 µM (inactive) | 4.8 µM (inactive) | 1.3 µM (inactive) | 1.15 µM (inactive) | 3.48 µM (inactive) | 2.5 µM (inactive) | 1.99 µM (inactive) | 3.7 µM (inactive) | 0.437 µM (active) | 1.64 µM (inactive) | 3.08 µM (inactive) | 2.54 µM (inactive) | 2.11 µM (inactive) | – | – | –
Cc1cc(S(=O)(=O)Nc2nc(N)n(-c3ccccc3)n2)c(S)cc1Cl | 45.1 µM (inactive) | > 100 µM (inactive) | > 100 µM (inactive) | > 100 µM (inactive) | – | 70 µM (inactive) | > 100 µM (inactive) | > 100 µM (inactive) | > 100 µM (inactive) | – | > 100 µM (inactive) | – | > 100 µM (inactive) | > 100 µM (inactive) | > 100 µM (inactive) | 60 µM (inactive) | > 100 µM (inactive) | > 100 µM (inactive) | > 100 µM (inactive) | > 100 µM (inactive)
Oc1cc2c(cc1C(c1ccc3c(c1)OCO3)N1CCN(C(c3ccc4c(c3)OCO4)c3cc4c(cc3O)OCO4)CC1)OCO2 (stereo not drawn) | 13.7 µM (inactive) | 20.3 µM (inactive) | 15.7 µM (inactive) | 21.7 µM (inactive) | 23.2 µM (inactive) | 11.9 µM (inactive) | 21.4 µM (inactive) | 16.7 µM (inactive) | 14.4 µM (inactive) | 16.9 µM (inactive) | 26.2 µM (inactive) | 16.7 µM (inactive) | 18.6 µM (inactive) | 16 µM (inactive) | 17.2 µM (inactive) | 15.4 µM (inactive) | 17.6 µM (inactive) | – | 3.24 µM (inactive) | 14.2 µM (inactive)
NC(=O)/C(=C\c1ccncc1)c1cccc2ccccc12 | > 100 µM (inactive) | 67.8 µM (inactive) | > 100 µM (inactive) | > 100 µM (inactive) | > 100 µM (inactive) | > 100 µM (inactive) | > 100 µM (inactive) | > 100 µM (inactive) | 55.1 µM (inactive) | 91.6 µM (inactive) | > 100 µM (inactive) | > 100 µM (inactive) | 56.9 µM (inactive) | 34.6 µM (inactive) | > 100 µM (inactive) | > 100 µM (inactive) | < 0.01 µM (active) | – | > 100 µM (inactive) | > 100 µM (inactive)
NC(Cc1ccc(OCc2ccccc2)cn1)C(=O)O (stereo not drawn) | > 100 µM (inactive) | > 100 µM (inactive) | > 100 µM (inactive) | > 100 µM (inactive) | – | > 100 µM (inactive) | > 100 µM (inactive) | > 100 µM (inactive) | – | > 100 µM (inactive) | > 100 µM (inactive) | > 100 µM (inactive) | > 100 µM (inactive) | > 100 µM (inactive) | – | > 100 µM (inactive) | > 100 µM (inactive) | > 100 µM (inactive) | > 100 µM (inactive) | > 100 µM (inactive)
CC1(C)CC(=O)C(Cc2ccccc2)(Cc2ccccc2)C(=O)C1 | > 100 µM (inactive) | > 100 µM (inactive) | > 100 µM (inactive) | > 100 µM (inactive) | – | 29.2 µM (inactive) | > 100 µM (inactive) | > 100 µM (inactive) | > 100 µM (inactive) | > 100 µM (inactive) | 33.8 µM (inactive) | > 100 µM (inactive) | > 100 µM (inactive) | > 100 µM (inactive) | > 100 µM (inactive) | > 100 µM (inactive) | > 100 µM (inactive) | – | > 100 µM (inactive) | > 100 µM (inactive)
CCOC(=O)/C(C(=O)Nc1ccc(F)cc1)=C(/N)N1CCCC1 | 92.9 µM (inactive) | > 100 µM (inactive) | > 100 µM (inactive) | > 100 µM (inactive) | – | > 100 µM (inactive) | > 100 µM (inactive) | > 100 µM (inactive) | > 100 µM (inactive) | < 0.01 µM (active) | > 100 µM (inactive) | > 100 µM (inactive) | – | > 100 µM (inactive) | > 100 µM (inactive) | > 100 µM (inactive) | > 100 µM (inactive) | > 100 µM (inactive) | > 100 µM (inactive) | > 100 µM (inactive)
CC12CCC(C/C1=N\NC(N)=O)C2(C)C (stereo not drawn) | > 100 µM (inactive) | > 100 µM (inactive) | > 100 µM (inactive) | > 100 µM (inactive) | > 100 µM (inactive) | > 100 µM (inactive) | > 100 µM (inactive) | > 100 µM (inactive) | > 100 µM (inactive) | > 100 µM (inactive) | – | > 100 µM (inactive) | > 100 µM (inactive) | > 100 µM (inactive) | > 100 µM (inactive) | > 100 µM (inactive) | > 100 µM (inactive) | – | > 100 µM (inactive) | > 100 µM (inactive)
Cc1nc(C)c(Cc2ccccc2)o1 | > 100 µM (inactive) | > 100 µM (inactive) | > 100 µM (inactive) | > 100 µM (inactive) | – | > 100 µM (inactive) | > 100 µM (inactive) | > 100 µM (inactive) | > 100 µM (inactive) | > 100 µM (inactive) | > 100 µM (inactive) | > 100 µM (inactive) | > 100 µM (inactive) | > 100 µM (inactive) | > 100 µM (inactive) | > 100 µM (inactive) | > 100 µM (inactive) | > 100 µM (inactive) | > 100 µM (inactive) | > 100 µM (inactive)
CC1(C)OC(=O)C(Cc2ccccc2)(Cc2ccccc2)C(=O)O1 | > 100 µM (inactive) | > 100 µM (inactive) | > 100 µM (inactive) | > 100 µM (inactive) | – | > 100 µM (inactive) | > 100 µM (inactive) | > 100 µM (inactive) | > 100 µM (inactive) | > 100 µM (inactive) | 3.58 µM (inactive) | > 100 µM (inactive) | > 100 µM (inactive) | > 100 µM (inactive) | > 100 µM (inactive) | > 100 µM (inactive) | > 100 µM (inactive) | – | > 100 µM (inactive) | > 100 µM (inactive)
O=C(NS(=O)(=O)Nc1ccc(Cl)cc1)OCc1ccc(Cl)cc1Cl | 28.4 µM (inactive) | 21.3 µM (inactive) | 20 µM (inactive) | 36.7 µM (inactive) | 24.7 µM (inactive) | 14.2 µM (inactive) | 28.4 µM (inactive) | 21.4 µM (inactive) | 41 µM (inactive) | 20.2 µM (inactive) | – | 17.2 µM (inactive) | 17.8 µM (inactive) | 25.3 µM (inactive) | – | 28.6 µM (inactive) | 46.6 µM (inactive) | 3.94 µM (inactive) | 22.6 µM (inactive) | –
CCN1/C(=C/C#C/C(C)=C\c2sc3ccccc3[n+]2CC)Sc2ccccc21 | 0.558 µM (active) | 3.42 µM (inactive) | 0.738 µM (active) | 5.37 µM (inactive) | 2 µM (inactive) | 2.98 µM (inactive) | 0.269 µM (active) | 1.28 µM (inactive) | 1.93 µM (inactive) | – | 2.14 µM (inactive) | 2.94 µM (inactive) | 2.02 µM (inactive) | 4.35 µM (inactive) | 5.13 µM (inactive) | 0.948 µM (active) | 1.32 µM (inactive) | – | 2.33 µM (inactive) | 0.377 µM (active)
CCCCCCOc1ccc(C(=O)NOCc2ccccc2)cc1 | > 100 µM (inactive) | > 100 µM (inactive) | > 100 µM (inactive) | > 100 µM (inactive) | > 100 µM (inactive) | > 100 µM (inactive) | 35.6 µM (inactive) | > 100 µM (inactive) | > 100 µM (inactive) | > 100 µM (inactive) | > 100 µM (inactive) | > 100 µM (inactive) | > 100 µM (inactive) | > 100 µM (inactive) | – | > 100 µM (inactive) | > 100 µM (inactive) | > 100 µM (inactive) | > 100 µM (inactive) | > 100 µM (inactive)
CCOC(=O)C1c2[nH]c3ccccc3c2CCN1C(=O)c1ccco1 (stereo not drawn) | > 10 µM (inactive) | > 10 µM (inactive) | > 10 µM (inactive) | > 10 µM (inactive) | > 10 µM (inactive) | > 10 µM (inactive) | > 10 µM (inactive) | > 10 µM (inactive) | > 10 µM (inactive) | – | – | > 10 µM (inactive) | > 10 µM (inactive) | > 10 µM (inactive) | > 10 µM (inactive) | > 10 µM (inactive) | > 10 µM (inactive) | 9.73 µM (inactive) | – | –
CN(c1ccccc1Cl)S(=O)(=O)c1ccccc1[N+](=O)[O-] | 22.6 µM (inactive) | 91.6 µM (inactive) | 33.6 µM (inactive) | 41.6 µM (inactive) | – | > 100 µM (inactive) | 21.3 µM (inactive) | 38.9 µM (inactive) | 17.3 µM (inactive) | 35.2 µM (inactive) | 29 µM (inactive) | 71.4 µM (inactive) | 15.3 µM (inactive) | 95.7 µM (inactive) | 90.6 µM (inactive) | 40.6 µM (inactive) | 45.1 µM (inactive) | – | 42.6 µM (inactive) | 32.7 µM (inactive)
